Data from PMC11111408, “Concurrent inhibition of oncogenic and wild-type RAS-GTP for cancer therapy” (Nature, 2024).

Test system: PRISM DNA-barcoded human tumour cell lines
Assay: PRISM pooled cell viability assay;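 for PRISM AUC: 8 threefold dilutions from 10 µM with 5 days of exposure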
Assay type: cell-based
Design: AUC (PRISM viability) / AUC (PRISM): unit not given beside the values
Conditions: for AUC (PRISM viability): WT; for PRISM AUC: KRAS MUT
Method: Cells were then lysed in TCL mRNA lysis buffer, and then PCR with reverse transcription was performed. Detection of the barcodes and univariate and multivariate analysis was then performed as previously described. Data analysis is described in the Supplementary Methods. Up-to-date code for our analysis is at the github link: https://github.com/cmap/dockerized_mts.
For every gene with non-silent mutations in at least four cell-lines, we compared the AUC values between cells with and without those mutations using a t-test. This analysis was carried out for: (i) the full dataset; (ii) excluding cell lines with non-silent KRAS mutations; and (iii) excluding cell lines that have either KRAS or NRAS non-silent mutations.

Structure (SMILES): CCn1c(-c2cc(N3CCN(C4CC4)CC3)cnc2[C@H](C)OC)c2c3cc(ccc31)-c1csc(n1)C[C@H](NC(=O)[C@H]1[C@@H]3COC[C@@H]31)C(=O)N1CCC[C@H](N1)C(=O)OCC(C)(C)C2 [RMC-7977]
- AUC (PRISM viability) (HUG1N_STOMACH): 0.8055
- AUC (PRISM viability) (HUH1_LIVER): 0.7529
- AUC (PRISM viability) (HUH6_LIVER): 0.7376
- AUC (PRISM viability) (HUH7_LIVER): 0.8557
- AUC (PRISM viability) (HUH28_BILIARY_TRACT): 0.8029
- PRISM AUC (HUPT3_PANCREAS): 0.1666
- PRISM AUC (HUPT4_PANCREAS): 0.2071
- PRISM AUC (IALM_LUNG): 0.3346
- AUC (PRISM viability) (IGR1_SKIN): 0.9019
- AUC (PRISM viability) (IGR37_SKIN): 0.7982
- AUC (PRISM viability) (IGR39_SKIN): 0.9854
- AUC (PRISM viability) (IGROV1_OVARY): 0.7964
- AUC (PRISM viability) (IM95_STOMACH): 0.4996
- AUC (PRISM viability) (IPC298_SKIN): 0.1645
- AUC (PRISM viability) (ISHIKAWAHERAKLIO02ER_ENDOMETRIUM): 0.7979
- AUC (PRISM viability) (ISTMES2_PLEURA): 1
- AUC (PRISM viability) (J82_URINARY_TRACT): 0.7456
- AUC (PRISM viability) (JEKO1_HAEMATOPOIETIC_AND_LYMPHOID_TISSUE): 0.8585
- AUC (PRISM viability) (JHH1_LIVER): 0.2992
- AUC (PRISM viability) (JHH4_LIVER): 0.7822
- AUC (PRISM viability) (JHH5_LIVER): 0.337
- AUC (PRISM viability) (JHH6_LIVER): 0.6328
- AUC (PRISM viability) (JHH7_LIVER): 0.6689
- AUC (PRISM viability) (JHOC5_OVARY): 0.6127
- AUC (PRISM viability) (JHOM1_OVARY): 0.7183
- AUC (PRISM viability) (JHOS2_OVARY): 0.6659
- AUC (PRISM viability) (JHUEM2_ENDOMETRIUM): 0.722
- AUC (PRISM viability) (JIMT1_BREAST): 0.6067
- AUC (PRISM viability) (JJN3_HAEMATOPOIETIC_AND_LYMPHOID_TISSUE): 0.5546
- AUC (PRISM viability) (JL1_PLEURA): 0.8348
- AUC (PRISM viability) (JM1_HAEMATOPOIETIC_AND_LYMPHOID_TISSUE): 0.8697
- AUC (PRISM viability) (JMSU1_URINARY_TRACT): 0.7968
- AUC (PRISM viability) (JURKAT_HAEMATOPOIETIC_AND_LYMPHOID_TISSUE): 1
- AUC (PRISM viability) (JURLMK1_HAEMATOPOIETIC_AND_LYMPHOID_TISSUE): 0.263
- AUC (PRISM viability) (JVM3_HAEMATOPOIETIC_AND_LYMPHOID_TISSUE): 0.6896
- AUC (PRISM viability) (K029AX_SKIN): 0.9507
- AUC (PRISM viability) (K562_HAEMATOPOIETIC_AND_LYMPHOID_TISSUE): 0.4372
- AUC (PRISM viability) (KALS1_CENTRAL_NERVOUS_SYSTEM): 0.7464
- AUC (PRISM viability) (KARPAS299_HAEMATOPOIETIC_AND_LYMPHOID_TISSUE): 0.6122
- PRISM AUC (KARPAS620_HAEMATOPOIETIC_AND_LYMPHOID_TISSUE): 0.3529
- AUC (PRISM viability) (KATOIII_STOMACH): 0.4955
- AUC (PRISM viability) (KCL22_HAEMATOPOIETIC_AND_LYMPHOID_TISSUE): 0.4527
- AUC (PRISM viability) (KE37_HAEMATOPOIETIC_AND_LYMPHOID_TISSUE): 0.4418
- AUC (PRISM viability) (KE39_STOMACH): 0.6732
- AUC (PRISM viability) (KELLY_AUTONOMIC_GANGLIA): 0.7861
- PRISM AUC (KHM1B_HAEMATOPOIETIC_AND_LYMPHOID_TISSUE): 0.496
- AUC (PRISM viability) (KLE_ENDOMETRIUM): 0.8932
- AUC (PRISM viability) (KMBC2_URINARY_TRACT): 0.2167
- AUC (PRISM viability) (KMH2_HAEMATOPOIETIC_AND_LYMPHOID_TISSUE): 0.7624
- AUC (PRISM viability) (KMRC1_KIDNEY): 1
- AUC (PRISM viability) (KMRC3_KIDNEY): 0.8631
- AUC (PRISM viability) (KMRC20_KIDNEY): 0.5322
- AUC (PRISM viability) (KMS11_HAEMATOPOIETIC_AND_LYMPHOID_TISSUE): 0.6264
- AUC (PRISM viability) (KMS18_HAEMATOPOIETIC_AND_LYMPHOID_TISSUE): 0.2086
- AUC (PRISM viability) (KMS27_HAEMATOPOIETIC_AND_LYMPHOID_TISSUE): 0.3359
- AUC (PRISM viability) (KMS34_HAEMATOPOIETIC_AND_LYMPHOID_TISSUE): 0.4857
- AUC (PRISM viability) (KNS42_CENTRAL_NERVOUS_SYSTEM): 0.8285
- AUC (PRISM viability) (KNS60_CENTRAL_NERVOUS_SYSTEM): 0.8415
- AUC (PRISM viability) (KNS62_LUNG): 0.4354
- AUC (PRISM viability) (KNS81_CENTRAL_NERVOUS_SYSTEM): 0.5354
- PRISM AUC (KOPN8_HAEMATOPOIETIC_AND_LYMPHOID_TISSUE): 0.2801
- PRISM AUC (KP2_PANCREAS): 0.2975
- PRISM AUC (KP3_PANCREAS): 0.3778
- PRISM AUC (KP4_PANCREAS): 0.4423
- AUC (PRISM viability) (KS1_CENTRAL_NERVOUS_SYSTEM): 0.4806
- AUC (PRISM viability) (KU1919_URINARY_TRACT): 0.2273
- AUC (PRISM viability) (KURAMOCHI_OVARY): 1
- AUC (PRISM viability) (KYM1_SOFT_TISSUE): 0.3526
- AUC (PRISM viability) (KYO1_HAEMATOPOIETIC_AND_LYMPHOID_TISSUE): 0.2345
- AUC (PRISM viability) (KYSE30_OESOPHAGUS): 0.402
- AUC (PRISM viability) (KYSE70_OESOPHAGUS): 0.7015
- AUC (PRISM viability) (KYSE140_OESOPHAGUS): 0.5343
- AUC (PRISM viability) (KYSE150_OESOPHAGUS): 0.4708
- AUC (PRISM viability) (KYSE180_OESOPHAGUS): 0.5999
- AUC (PRISM viability) (KYSE270_OESOPHAGUS): 0.564
- PRISM AUC (KYSE410_OESOPHAGUS): 0.2588
- AUC (PRISM viability) (KYSE450_OESOPHAGUS): 0.34
- AUC (PRISM viability) (KYSE510_OESOPHAGUS): 0.4594
- AUC (PRISM viability) (KYSE520_OESOPHAGUS): 0.4602
- PRISM AUC (L33_PANCREAS): 0.3993
- AUC (PRISM viability) (L363_HAEMATOPOIETIC_AND_LYMPHOID_TISSUE): 0.6953
- AUC (PRISM viability) (LAMA84_HAEMATOPOIETIC_AND_LYMPHOID_TISSUE): 0.3291
- AUC (PRISM viability) (LCLC103H_LUNG): 0.6805
- AUC (PRISM viability) (LI7_LIVER): 0.4821
- AUC (PRISM viability) (LK2_LUNG): 0.4878
- AUC (PRISM viability) (LMSU_STOMACH): 0.6242
- AUC (PRISM viability) (LN18_CENTRAL_NERVOUS_SYSTEM): 0.6382
- AUC (PRISM viability) (LN229_CENTRAL_NERVOUS_SYSTEM): 0.6899
- AUC (PRISM viability) (LN382_CENTRAL_NERVOUS_SYSTEM): 0.6351
- AUC (PRISM viability) (LNCAPCLONEFGC_PROSTATE): 0.7528
- AUC (PRISM viability) (LNZ308_CENTRAL_NERVOUS_SYSTEM): 0.4353
- AUC (PRISM viability) (LOUNH91_LUNG): 0.4098
- PRISM AUC (LOVO_LARGE_INTESTINE): 0.4131
- AUC (PRISM viability) (LOXIMVI_SKIN): 1
- PRISM AUC (LS180_LARGE_INTESTINE): 0.2098
- AUC (PRISM viability) (LS411N_LARGE_INTESTINE): 1
- PRISM AUC (LS513_LARGE_INTESTINE): 0.2181
- PRISM AUC (LU99_LUNG): 0.2453
- AUC (PRISM viability) (LUDLU1_LUNG): 0.5495
- AUC (PRISM viability) (LXF289_LUNG): 0.5423
- AUC (PRISM viability) (M059K_CENTRAL_NERVOUS_SYSTEM): 0.9015
- AUC (PRISM viability) (MALME3M_SKIN): 0.9889
- AUC (PRISM viability) (MC116_HAEMATOPOIETIC_AND_LYMPHOID_TISSUE): 0.9825
- PRISM AUC (MCAS_OVARY): 0.3593
- AUC (PRISM viability) (MCF7_BREAST): 0.8582
- AUC (PRISM viability) (MDAMB175VII_BREAST): 0.5383
- PRISM AUC (MDAMB231_BREAST): 0.478
- AUC (PRISM viability) (MDAMB361_BREAST): 0.7391
- AUC (PRISM viability) (MDAMB435S_SKIN): 0.9518
- AUC (PRISM viability) (MDAMB436_BREAST): 0.9067
- AUC (PRISM viability) (MDAMB453_BREAST): 0.3963
- AUC (PRISM viability) (MDAMB468_BREAST): 0.5525
- AUC (PRISM viability) (MDST8_LARGE_INTESTINE): 0.7229
- AUC (PRISM viability) (MELHO_SKIN): 0.9921
- AUC (PRISM viability) (MELJUSO_SKIN): 0.3578
- AUC (PRISM viability) (MESSA_SOFT_TISSUE): 0.9559
- AUC (PRISM viability) (MEWO_SKIN): 0.6173
- AUC (PRISM viability) (MFE280_ENDOMETRIUM): 0.5252
- AUC (PRISM viability) (MFE296_ENDOMETRIUM): 0.9033
- AUC (PRISM viability) (MFE319_ENDOMETRIUM): 0.8155
- AUC (PRISM viability) (MG63_BONE): 0.7861
- AUC (PRISM viability) (MHHES1_BONE): 0.8525
- AUC (PRISM viability) (MHHNB11_AUTONOMIC_GANGLIA): 0.4191
- PRISM AUC (MIAPACA2_PANCREAS): 0.1568
- AUC (PRISM viability) (MKN1_STOMACH): 0.5983
- AUC (PRISM viability) (MKN7_STOMACH): 0.4769
- AUC (PRISM viability) (MKN45_STOMACH): 0.1583
- AUC (PRISM viability) (MKN74_STOMACH): 0.7438
- AUC (PRISM viability) (MOLM13_HAEMATOPOIETIC_AND_LYMPHOID_TISSUE): 0.4032
- AUC (PRISM viability) (MOLP2_HAEMATOPOIETIC_AND_LYMPHOID_TISSUE): 0.65
- AUC (PRISM viability) (MOLT16_HAEMATOPOIETIC_AND_LYMPHOID_TISSUE): 0.6383
- AUC (PRISM viability) (MONOMAC1_HAEMATOPOIETIC_AND_LYMPHOID_TISSUE): 0.7673
- AUC (PRISM viability) (MONOMAC6_HAEMATOPOIETIC_AND_LYMPHOID_TISSUE): 0.6964
